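Cells were grown in 96-well plates and exposed to each compound for 48 hours at five concentrations; endpoints were interpolated linearly between bracketing concentrations, or set to the highest concentration if not reached. GI50 marks 50% less growth.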 Activity calls are given as the source filed them. Rule as the data show it: active = GI50 up to about 1.1 µM and inactive = higher.
How the values were obtained:
Experiment in all cases: inhibition of tumour cell growth, NCI panel, 48 h
EKVX = test system: EKVX
HCC 2998 = test system: HCC 2998
HCT-15 = test system: HCT-15
HL-60 = test system: HL-60
HOP-92 = test system: HOP-92
K562 = test system: K562
KM12 = test system: KM12
NCI-H23 = test system: NCI-H23
OVCAR-3 = test system: OVCAR-3
RPMI-8226 = test system: RPMI-8226
RXF 393 = test system: RXF 393
SF-268 = test system: SF-268
SK-MEL-5 = test system: SK-MEL-5
SK-OV-3 = test system: SK-OV-3
SN12C = test system: SN12C
SNB-19 = test system: SNB-19
SNB-75 = test system: SNB-75
UACC-257 = test system: UACC-257
UACC-62 = test system: UACC-62

SMILES	GI50 (EKVX)	GI50 (HCC 2998)	GI50 (HCT-15)	GI50 (HL-60)	GI50 (HOP-92)	GI50 (K562)	GI50 (KM12)	GI50 (NCI-H23)	GI50 (OVCAR-3)	GI50 (RPMI-8226)	GI50 (RXF 393)	GI50 (SF-268)	GI50 (SK-MEL-5)	GI50 (SK-OV-3)	GI50 (SN12C)	GI50 (SNB-19)	GI50 (SNB-75)	GI50 (UACC-257)	GI50 (UACC-62)
CC(C)NC(=O)CCN(C(=O)O)S(=O)(=O)c1ccc(NC(=O)c2ccccc2)cc1	> 100 µM (inactive)	> 100 µM (inactive)	> 42.2 µM	> 48.8 µM (inactive)	> 100 µM (inactive)	> 43.7 µM (inactive)	> 65.6 µM (inactive)	> 100 µM (inactive)	> 100 µM (inactive)	34.8 µM (inactive)	> 100 µM (inactive)	> 54.5 µM (inactive)	> 100 µM (inactive)	> 100 µM (inactive)	> 100 µM (inactive)	> 100 µM (inactive)	> 100 µM (inactive)	> 51.9 µM (inactive)	> 45.5 µM (inactive)
O=C1c2ccccc2C(Br)(Br)c2ccccc21	> 100 µM (inactive)	> 31.6 µM (inactive)	> 31.6 µM	> 31.6 µM (inactive)	> 100 µM (inactive)	> 31.6 µM (inactive)	> 100 µM (inactive)	> 100 µM (inactive)	> 31.6 µM (inactive)	> 10 µM (inactive)	18.2 µM (inactive)	25.5 µM (inactive)	> 31.6 µM (inactive)	> 31.6 µM (inactive)	> 31.6 µM (inactive)	> 31.6 µM (inactive)	14.9 µM (inactive)	> 100 µM (inactive)	> 100 µM (inactive)
CCOC(=O)Cc1nnc2n(-c3ccccc3)c(=O)c3ccccc3n12	> 100 µM (inactive)	> 100 µM (inactive)	> 100 µM	> 100 µM (inactive)	17.1 µM (inactive)	> 100 µM (inactive)	> 100 µM (inactive)	> 100 µM (inactive)	> 100 µM (inactive)		> 100 µM (inactive)	61.7 µM (inactive)	> 100 µM (inactive)	> 100 µM (inactive)	> 100 µM (inactive)	74.8 µM (inactive)	43.9 µM (inactive)	46.1 µM (inactive)	44.3 µM (inactive)
COC(=O)C1=C(c2ccc(Cl)cc2)C(O)NC(NN)=N1 (centres undefined)	> 100 µM (inactive)	> 100 µM (inactive)	> 100 µM	> 100 µM (inactive)	> 100 µM (inactive)	> 100 µM (inactive)	> 100 µM (inactive)	> 100 µM (inactive)	> 100 µM (inactive)	> 100 µM (inactive)	> 100 µM (inactive)	> 100 µM (inactive)	> 100 µM (inactive)	> 100 µM (inactive)	> 100 µM (inactive)	> 100 µM (inactive)		> 100 µM (inactive)	> 100 µM (inactive)
NC(=S)/N=C(/c1nc2ccc(Cl)cc2nc1O)C(O)c1ccccc1Cl (centres undefined)	> 100 µM (inactive)	> 100 µM (inactive)	> 100 µM	> 100 µM (inactive)	> 100 µM (inactive)	> 100 µM (inactive)	> 100 µM (inactive)	> 100 µM (inactive)		> 100 µM (inactive)	> 100 µM (inactive)	> 100 µM (inactive)		> 100 µM (inactive)			> 100 µM (inactive)	> 100 µM (inactive)	> 100 µM (inactive)
CN(C)CC1CCC(=C2CCCC2)C1=O (centres undefined)	18.6 µM (inactive)	18.2 µM (inactive)	5.65 µM	3.51 µM (inactive)	5 µM (inactive)	2.86 µM (inactive)	10.9 µM (inactive)	20 µM (inactive)	13.5 µM (inactive)	0.859 µM (active)	10.5 µM (inactive)	12.4 µM (inactive)	17.9 µM (inactive)	> 100 µM (inactive)	10.7 µM (inactive)	> 63.7 µM (inactive)	16.2 µM (inactive)	17.4 µM (inactive)	17.3 µM (inactive)
CC12CCc3ccccc3C1=NNC(=O)C2 (centres undefined)	> 100 µM (inactive)	> 100 µM (inactive)	> 100 µM	82 µM (inactive)	> 100 µM (inactive)	> 100 µM (inactive)	> 100 µM (inactive)	> 100 µM (inactive)	> 100 µM (inactive)	> 100 µM (inactive)	> 100 µM (inactive)	> 100 µM (inactive)	> 100 µM (inactive)	> 100 µM (inactive)	> 100 µM (inactive)	> 100 µM (inactive)	> 100 µM (inactive)	> 100 µM (inactive)	
CCOC(=O)C(O)(CC1=NC(C(=O)OC)(C(=O)OC)C(c2cccc(C=O)c2)O1)C(=O)OCC (centres undefined)	> 100 µM (inactive)	> 100 µM (inactive)	> 100 µM	25.3 µM (inactive)	> 100 µM (inactive)	> 100 µM (inactive)	> 100 µM (inactive)	> 100 µM (inactive)	> 100 µM (inactive)	> 100 µM (inactive)	> 100 µM (inactive)		> 100 µM (inactive)	> 100 µM (inactive)	> 100 µM (inactive)	> 100 µM (inactive)	> 100 µM (inactive)	> 100 µM (inactive)	> 100 µM (inactive)

Source: ChEMBL document CHEMBL1201862, “PubChem BioAssay data set” (2004)
